Test results published in US20210269434A1, “TRICYCLIC COMPOUNDS AS INHIBITORS OF KRAS” (Incyte Corporation, priority 2020, published 2021).

These compounds were tested against KRAS G12D (Homo sapiens, UniProt P01116, G12D) (assay: GDP-GTP exchange assay (KRAS_G12D exchange)). Settings: bodipy loaded KRAS G12D 2.5 nM; 4 hours incubation after GppNHp-SOS1; read-out: G12D_exchange.
Format: biochemical
Procedure: Example A. GDP-GTP Exchange Assay
The inhibitor potency of the exemplified compounds was determined in a fluorescence based guanine nucleotide exchange assay, which measures the exchange of bodipy-GDP (fluorescently labeled GDP) for GppNHp (Non-hydrolyzable GTP analog) to generate the active state of KRAS in the presence of SOS1 (guanine nucleotide exchange factor). Inhibitors were serially diluted in DMSO and a volume of 0.1 μL was transferred to the wells of a black low volume 384-well plate. 5 μL/well volume of bodipy-loaded KRAS G12C diluted to 5 nM in assay buffer (25 mM Hepes pH 7.5, 50 mM NaCl, 10 mM MgCl2 and 0.01% Brij-35) was added to the plate and pre-incubated with inhibitor for 2 hours at ambient temperature. Appropriate controls (enzyme with no inhibitor or with a G12C inhibitor (AMG-510)) were included on the plate. The exchange was initiated by the addition of a 5 μL/well volume containing 1 mM GppNHp and 300 nM SOS1 in assay buffer. The 10 μL/well reaction concentration of the bodipy-loaded KRAS G12C, GppNHp, and SOS1 were 2.5 nM, 500 uM, and 150 nM, respectively. The reaction plates were incubated at ambient temperature for 2 hours, a time estimated for complete GDP-GTP exchange in the absence of inhibitor. For the KRAS G12D and G12V mutants, similar guanine nucleotide exchange assays were used with 2.5 nM as final concentration for the bodipy loaded KRAS proteins and with 4 hours and 3 hours incubation after adding GppNHp-SOS1 mixture for G12D and G12V respectively. A cyclic peptide described to selectively bind G12D mutant (Sakamoto et al., BBRC 484.3 (2017), 605-611) or internal compounds with confirmed binding were used as positive controls in the assay plates. Fluorescence intensities were measured on a PheraStar plate reader instrument (BMG Labtech) with excitation at 485 nm and emission at 520 nm.
Either GraphPad prism or XLfit was used to analyze the data. The IC50 values were derived by fitting the data to a four parameter logistic equation producing a sigmoidal dose-response curve with a variable Hill coefficient. Prism equation: Y=Bottom+(Top−Bottom)/(1+10^((Log lC50−X)*Hill slope)); XLfit equation: Y=(A+((B−A)/(1+((X/C)^D)))) where X is the logarithm of inhibitor concentration and Y is the response.

Sequence of KRAS G12D (P01116 1-188 isoform P01116-2 G12D): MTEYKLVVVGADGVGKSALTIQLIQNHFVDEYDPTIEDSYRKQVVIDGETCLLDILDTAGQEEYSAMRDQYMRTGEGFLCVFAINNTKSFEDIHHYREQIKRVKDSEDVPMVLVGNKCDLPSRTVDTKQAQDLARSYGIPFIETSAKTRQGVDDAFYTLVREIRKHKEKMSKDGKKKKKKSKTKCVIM

| IC50 [nM] | Compound |
| --- | --- |
| ≤ 100 | CN(C)C1CN(c2nc3c(F)c(-c4cc(O)cc5ccccc45)c(CCC#N)cc3c3c2nc(CN2CCOCC2=O)n3C2C3CNC2C3)C1 (single isomer, unassigned) [Example 300a, 3-(1-((endo)-2-azabicyclo[2.1.1]hexan-5-yl)-4-(3-(dimethylamino)azetidin-1-yl)-6-fluoro-7-(3-hydroxynaphthalen-1-yl)-2-((3-oxomorpholino)methyl)-1H-imidazo[4,5-c]quinolin-8-yl)propanenitrile] |
| ≤ 100 | CN(C)C1CN(c2nc3c(F)c(-c4cc(O)cc5ccccc45)c(CCC#N)cc3c3c2nc(-c2csc(N4CCNCC4)n2)n3C2C3CNC2C3)C1 (single isomer, unassigned) [Example 302a, 3-(1-((endo)-2-azabicyclo[2.1.1]hexan-5-yl)-4-(3-(dimethylamino)azetidin-1-yl)-6-fluoro-7-(3-hydroxynaphthalen-1-yl)-2-(2-(piperazin-1-yl)thiazol-4-yl)-1H-imidazo[4,5-c]quinolin-8-yl)propanenitrile] |
| 1000 to 5000 | Cc1nc2c(N3CC(N(C)C)C3)nc3c(F)c(-c4cc(O)cc5ccccc45)c(Cl)cc3c2n1[C@H]1[C@H]2CN[C@@H]1C2 [Example 15, 4-(1-((endo)-2-azabicyclo[2.1.1]hexan-5-yl)-8-chloro-4-(3-(dimethylamino)-azetidin-1-yl)-6-fluoro-2-methyl-1H-imidazo[4,5-c]quinolin-7-yl)naphthalen-2-ol] |
| 1000 to 5000 | Cc1ccc2cc(O)cc(-c3c(Cl)cc4c(nc(N5CC(N(C)C)C5)c5ncn([C@H]6[C@H]7CN[C@@H]6C7)c54)c3F)c2c1 [Example 24, 4-(1-((endo)-2-azabicyclo[2.1.1]hexan-5-yl)-8-chloro-4-(3-(dimethylamino)-azetidin-1-yl)-6-fluoro-1H-imidazo[4,5-c]quinolin-7-yl)-6-methylnaphthalen-2-ol] |
| 100 to 1000 | CN(C)C1CN(c2nc3c(F)c(-c4cc(O)cc5ccccc45)c(Cl)cc3c3c2nc(CCN)n3[C@H]2[C@H]3CN[C@@H]2C3)C1 [Example 76, 4-(2-(2-aminoethyl)-1-((endo)-2-azabicyclo[2.1.1]hexan-5-yl)-8-chloro-4-(3-(dimethylamino)azetidin-1-yl)-6-fluoro-1H-imidazo[4,5-c]quinolin-7-yl)naphthalen-2-ol] |
| 100 to 1000 | CN(C)C1CN(c2nc3c(F)c(-c4cc(O)cc5ccccc45)c(Cl)cc3c3c2nc(-c2cn(C)cn2)n3[C@H]2[C@H]3CN[C@@H]2C3)C1 [Example 78, 4-(1-((endo)-2-azabicyclo[2.1.1]hexan-5-yl)-8-chloro-4-(3-(dimethylamino)-azetidin-1-yl)-6-fluoro-2-(1-methyl-1H-imidazol-4-yl)-1H-imidazo[4,5-c]quinolin-7-yl)naphthalen-2-ol] |
| 100 to 1000 | CN(C)C(=O)CCc1nc2c(N3CC(N(C)C)C3)nc3c(Oc4ccccc4)c(-c4cc(O)cc5ccccc45)c(CCC#N)cc3c2n1C1C2CNC1C2 (stereo not drawn) [Example 293, 3-(1-((endo)-2-azabicyclo[2.1.1]hexan-5-yl)-8-(2-cyanoethyl)-4-(3-(dimethylamino)azetidin-1-yl)-7-(3-hydroxynaphthalen-1-yl)-6-phenoxy-1H-imidazo[4,5-c]quinolin-2-yl)-N,N-dimethylpropanamide] |
| ≤ 100 | CNC(=O)c1cc(-c2nc3c(F)c(-c4cc(O)cc5ccccc45)c(CCC#N)cc3c3c2nc(CCC(=O)N(C)C)n3C2C3CNC2C3)ccc1F (stereo not drawn) [Example 297, 5-(1-((endo)-2-azabicyclo[2.1.1]hexan-5-yl)-8-(2-cyanoethyl)-2-(3-(dimethylamino)-3-oxopropyl)-6-fluoro-7-(3-hydroxynaphthalen-1-yl)-1H-imidazo[4,5-c]quinolin-4-yl)-2-fluoro-N-methylbenzamide] |
| ≤ 100 | CN(C)C(=O)CCc1nc2c(-c3ccc(=O)n(C)c3)nc3c(F)c(-c4cc(O)cc5ccccc45)c(CCC#N)cc3c2n1C1C2CNC1C2 (stereo not drawn) [Example 298, 3-(1-((endo)-2-azabicyclo[2.1.1]hexan-5-yl)-8-(2-cyanoethyl)-6-fluoro-7-(3-hydroxynaphthalen-1-yl)-4-(1-methyl-6-oxo-1,6-dihydropyridin-3-yl)-1H-imidazo[4,5-c]quinolin-2-yl)-N,N-dimethylpropanamide] |
| ≤ 100 | CN(C)C(=O)CCc1nc2c(N3CC(N(C)C)C3)nc3c(F)c(-c4cc(O)cc5ccccc45)c(Cc4ccccc4C#N)cc3c2n1C1C2CNC1C2 (stereo not drawn) [Example 299, 3-(1-((endo)-2-azabicyclo[2.1.1]hexan-5-yl)-8-(2-cyanobenzyl)-4-(3-(dimethylamino)azetidin-1-yl)-6-fluoro-7-(3-hydroxynaphthalen-1-yl)-1H-imidazo[4,5-c]quinolin-2-yl)-N,N-dimethylpropanamide] |
| ≤ 100 | CN(Cc1ccccn1)C(=O)CCc1nc2c(N3CC(N(C)C)C3)nc3c(F)c(-c4cc(O)cc5ccccc45)c(CCC#N)cc3c2n1C1C2CNC1C2 (stereo not drawn) [Example 301a, 3-(1-((endo)-2-azabicyclo[2.1.1]hexan-5-yl)-8-(2-cyanoethyl)-4-(3-(dimethylamino)azetidin-1-yl)-6-fluoro-7-(3-hydroxynaphthalen-1-yl)-1H-imidazo[4,5-c]quinolin-2-yl)-N-methyl-N-(pyridin-2-ylmethyl)propanamide] |
